Laboratory results reported in US20060069132A1, “Azolecarboxamide herbicides” (priority 2004, published 2006).
Like-named read-outs stand apart in the source and are kept apart here.

Experiments:
giant foxtail = assay: Test A pre-/postemergence herbicide test; type: in vivo, Setaria faberi; settings: Setaria faberi, 240 h; for pest or weed control at 500 g/ha: 500 g ai/ha; for pest or weed control at 2000 g/ha: 2000 g ai/ha
Procedure, shortened: (§1)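 Seeds sown in sandy loam received a preemergence directed soil spray of compound in non-phytotoxic solvent with surfactant; postemergence plants (2–10 cm, one- to two-leaf stage) were sprayed to runoff at the same time. After ~10 days in greenhouse, injury was rated visually versus untreated controls (0 = no effect, 100 = complete control).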

barnyardgrass [1] = assay: Test C flooded paddy test; type: in vivo, Echinochloa crus-galli; settings: Echinochloa crus-galli
Procedure, shortened: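 Plants were grown to the 1- to 4-leaf stage (2–18 cm) and then treated postemergence, or grown to the 2-leaf stage for the flooded paddy test. They were held in a greenhouse for 12 to 14 days and then scored by eye against controls, where 0 is no effect and 100 is complete control.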

redroot pigweed = assay: Test A pre-/postemergence herbicide test; type: in vivo, Amaranthus retroflexus; settings: Amaranthus retroflexus, 240 h; for pest or weed control at 500 g/ha: 500 g ai/ha; for pest or weed control at 2000 g/ha: 2000 g ai/ha
Procedure, shortened: as §1

Surinam grass = assay: Test C pre-/postemergence herbicide test; type: in vivo, Urochloa decumbens; settings: for pest or weed control at 125 g/ha: 125 g ai/ha
Procedure, shortened: (§2)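 Seeds were planted and sprayed preemergence with test chemicals in a non-phytotoxic solvent mixture containing surfactant; postemergence treatments went onto plants 2 to 18 cm tall (1- to 4-leaf stage). After 12 to 14 days in a greenhouse, injury was rated visually against untreated controls on a 0–100 scale.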

morningglory = assay: Test C pre-/postemergence herbicide test; type: in vivo, Ipomoea coccinea
Procedure, shortened: as §2

woolly cupgrass = assay: Test C pre-/postemergence herbicide test; type: in vivo, Eriochloa villosa; settings: for pest or weed control at 250 g/ha: 250 g ai/ha; for pest or weed control at 125 g/ha: 125 g ai/ha
Procedure, shortened: as §2

large crabgrass = assay: Test A pre-/postemergence herbicide test; type: in vivo, Digitaria sanguinalis; settings: Digitaria sanguinalis, 240 h; for pest or weed control at 500 g/ha: 500 g ai/ha; for pest or weed control at 2000 g/ha: 2000 g ai/ha
Procedure, shortened: as §1

barnyardgrass [2] = assay: Test A pre-/postemergence herbicide test; type: in vivo, Echinochloa crus-galli; settings: Echinochloa crus-galli, 240 h; for pest or weed control at 500 g/ha: 500 g ai/ha; for pest or weed control at 2000 g/ha: 2000 g ai/ha
Procedure, shortened: as §1

johnsongrass = assay: Test C pre-/postemergence herbicide test; type: in vivo, Sorghum halepense; settings: for pest or weed control at 125 g/ha: 125 g ai/ha
Procedure, shortened: as §2

bermudagrass = assay: Test C pre-/postemergence herbicide test; type: in vivo, Cynodon dactylon; settings: for pest or weed control at 250 g/ha: 250 g ai/ha; for pest or weed control at 125 g/ha: 125 g ai/ha
Procedure, shortened: as §2

[3] = post-emergence, Postemergence, 0 to 100 scale, 0 no effect, 100 complete control, read-out: Plant response rating, Foxtail, Giant
[4] = post-emergence, Postemergence, 0 to 100 scale, 0 no effect, 100 complete control, read-out: Plant response rating, Pigweed
[5] = post-emergence, Postemergence, 0 to 100 scale, 0 no effect, 100 complete control, read-out: Plant response rating, Crabgrass, Large
[6] = post-emergence, Postemergence, 0 to 100 scale, 0 no effect, 100 complete control, read-out: Plant response rating, Barnyardgrass

In the case of `CCOC(=O)c1cccc(NC(=O)c2cc(C(C)(C)C)nn2CC)c1` [Compound 80, ethyl 3-[[[3-(1,1-dimethylethyl)-1-ethyl-1H-pyrazol-5-yl]carbonyl]-amino]benzoate], the pest or weed control at 500 g/ha (giant foxtail; [3]) is reported as 80%, the pest or weed control at 2000 g/ha (giant foxtail; [3]) is reported as 90% and the pest or weed control at 500 g/ha (giant foxtail; pre-emergence, Preemergence, visual rating, 0 to 100 scale (0 no effect, 100 complete control), read-out: Foxtail, Giant plant response rating) is reported as 20%. For the same compound, the pest or weed control at 2000 g/ha (giant foxtail; pre-emergence, Preemergence, 0 to 100 scale, 0 no effect, 100 complete control, read-out: Foxtail, Giant plant response rating) was 70%, the pest or weed control at 62 g/ha (barnyardgrass [1]; 62 g ai/ha, scale 0 to 100 (0 no effect, 100 complete control), read-out: Barnyardgrass plant response rating) was 0% and the pest or weed control at 125 g/ha (barnyardgrass [1]; 125 g ai/ha, scale of 0 to 100, 0 is no effect, 100 is complete control, read-out: Barnyardgrass plant response rating) was 20%. The pest or weed control at 250 g/ha (barnyardgrass [1]; 250 g ai/ha, scale of 0 to 100, 0 is no effect, 100 is complete control, read-out: Barnyardgrass plant response rating) was 40%, the pest or weed control at 500 g/ha (barnyardgrass [1]; 500 g ai/ha, visual rating after 12 to 14 days, scale 0 to 100 (0 no effect, 100 complete control), read-out: Plant response rating, Barnyardgrass) was 60% and the pest or weed control at 500 g/ha (redroot pigweed; [4]) was 100%. The pest or weed control at 2000 g/ha (redroot pigweed; [4]) was 100%, the pest or weed control at 500 g/ha (redroot pigweed; pre-emergence, Preemergence, visual rating, 0 to 100 scale (0 no effect, 100 complete control), read-out: Pigweed plant response rating) was 70% and the pest or weed control at 2000 g/ha (redroot pigweed; pre-emergence, Preemergence, 0 to 100 scale, 0 no effect, 100 complete control, read-out: Pigweed plant response rating) was 90%. The “Plant response rating (0 = no effect, 100 = complete control), Surinam Grass” value (Surinam grass; 62 g ai/ha, preemergence) was 0, the pest or weed control at 250 g/ha (Surinam grass; Urochloa decumbens, post-emergence, 312 h, Postemergence, 250 g ai/ha, scale 0 to 100, 0 no effect, 100 complete control, read-out: Plant response rating, Surinam Grass) was 80% and the pest or weed control at 125 g/ha (Surinam grass; Urochloa decumbens, post-emergence, 312 h, postemergence, scale 0 to 100, read-out: Plant response rating, Surinam Grass) was 80%. It also gave a pest or weed control at 62 g/ha (Surinam grass; Urochloa decumbens, post-emergence, 312 h, postemergence, 62 g ai/ha, scale 0 to 100, read-out: Plant response rating, Surinam Grass) of 80%, a pest or weed control at 31 g/ha (Surinam grass; Urochloa decumbens, pre-emergence, 312 h, 31 g ai/ha, preemergence, scale 0 to 100, read-out: Plant response rating, Surinam Grass) of 0% and a pest or weed control at 125 g/ha (Surinam grass; Urochloa decumbens, pre-emergence, 312 h, scale 0 (no effect) to 100 (complete control), visual, 12 to 14 days, read-out: Plant response rating, Surinam Grass) of 10%. The “Plant response rating (0 = no effect, 100 = complete control), Morningglory” value (morningglory; 62 g ai/ha, preemergence) was 20, the pest or weed control at 250 g/ha (morningglory; Ipomoea, post-emergence, Postemergence, 250 g ai/ha, scale 0 to 100, 0 no effect, 100 complete control, read-out: Plant response rating, Morningglory) was 90% and the pest or weed control at 125 g/ha (morningglory; Ipomoea, post-emergence, postemergence, 125 g ai/ha, scale 0 to 100, read-out: Plant response rating, Morningglory) was 90%. For the same compound, the pest or weed control at 62 g/ha (morningglory; Ipomoea, post-emergence, postemergence, 62 g ai/ha, scale 0 to 100, read-out: Plant response rating, Morningglory) was 90%, the pest or weed control at 31 g/ha (morningglory; Ipomoea, pre-emergence, 31 g ai/ha, preemergence, scale 0 to 100, read-out: Plant response rating, Morningglory) was 0% and the “Plant response rating (0 = no effect, 100 = complete control), Cupgrass, Woolly” value (woolly cupgrass; 62 g ai/ha, preemergence) was 0. It also gave a pest or weed control at 250 g/ha (woolly cupgrass; Eriochloa villosa, post-emergence, 312 h, Postemergence, scale 0 to 100, 0 no effect, 100 complete control, read-out: Plant response rating, Cupgrass, Woolly) of 90%, a pest or weed control at 125 g/ha (woolly cupgrass; Eriochloa villosa, post-emergence, 312 h, postemergence, scale 0 to 100, read-out: Plant response rating, Cupgrass, Woolly) of 90% and a pest or weed control at 62 g/ha (woolly cupgrass; Eriochloa villosa, post-emergence, 312 h, postemergence, 62 g ai/ha, scale 0 to 100, read-out: Plant response rating, Cupgrass, Woolly) of 80%. It also gave a pest or weed control at 31 g/ha (woolly cupgrass; Eriochloa villosa, pre-emergence, 312 h, 31 g ai/ha, preemergence, scale 0 to 100, read-out: Plant response rating, Cupgrass, Woolly) of 0%, a pest or weed control at 125 g/ha (woolly cupgrass; Eriochloa villosa, pre-emergence, 312 h, scale 0 (no effect) to 100 (complete control), visual, 12 to 14 days, read-out: Plant response rating, Cupgrass, Woolly) of 10% and a pest or weed control at 250 g/ha (woolly cupgrass; Eriochloa villosa, pre-emergence, 312 h, scale 0 to 100 (0 no effect, 100 complete control), visual, 12 to 14 days, read-out: Plant response rating, Cupgrass, Woolly) of 10%. For the same compound, the pest or weed control at 500 g/ha (large crabgrass; [5]) was 70%, the pest or weed control at 2000 g/ha (large crabgrass; [5]) was 90% and the pest or weed control at 500 g/ha (large crabgrass; pre-emergence, Preemergence, visual rating, 0 to 100 scale (0 no effect, 100 complete control), read-out: Crabgrass, Large plant response rating) was 10%. It also gave a pest or weed control at 2000 g/ha (large crabgrass; pre-emergence, Preemergence, 0 to 100 scale, 0 no effect, 100 complete control, read-out: Crabgrass, Large plant response rating) of 30%, a pest or weed control at 500 g/ha (barnyardgrass [2]; [6]) of 90% and a pest or weed control at 2000 g/ha (barnyardgrass [2]; [6]) of 90%. The pest or weed control at 500 g/ha (barnyardgrass [2]; pre-emergence, Preemergence, visual rating, 0 to 100 scale (0 no effect, 100 complete control), read-out: Barnyardgrass plant response rating) was 10%, the pest or weed control at 2000 g/ha (barnyardgrass [2]; pre-emergence, Preemergence, 0 to 100 scale, 0 no effect, 100 complete control, read-out: Barnyardgrass plant response rating) was 35% and the “Plant response rating (0 = no effect, 100 = complete control), Johnsongrass” value (johnsongrass; 62 g ai/ha, preemergence) was 10. For the same compound, the pest or weed control at 250 g/ha (johnsongrass; Sorghum halepense, post-emergence, Postemergence, 250 g ai/ha, scale 0 to 100, 0 no effect, 100 complete control, read-out: Plant response rating, Johnsongrass) was 90%, the pest or weed control at 125 g/ha (johnsongrass; Sorghum halepense, post-emergence, postemergence, scale 0 to 100, read-out: Plant response rating, Johnsongrass) was 90% and the pest or weed control at 62 g/ha (johnsongrass; Sorghum halepense, post-emergence, postemergence, 62 g ai/ha, scale 0 to 100, read-out: Plant response rating, Johnsongrass) was 80%. For the same compound, the pest or weed control at 31 g/ha (johnsongrass; Sorghum halepense, pre-emergence, 31 g ai/ha, preemergence, scale 0 to 100, read-out: Plant response rating, Johnsongrass) was 0%, the pest or weed control at 125 g/ha (johnsongrass; Sorghum halepense, pre-emergence, scale 0 (no effect) to 100 (complete control), visual, 12 to 14 days, read-out: Plant response rating, Johnsongrass) was 10% and the “Plant response rating (0 = no effect, 100 = complete control), Bermudagrass” value (bermudagrass; 62 g ai/ha, preemergence) was 10. The pest or weed control at 250 g/ha (bermudagrass; Cynodon dactylon, post-emergence, 312 h, Postemergence, scale 0 to 100, read-out: Bermudagrass plant response rating) was 100%, the pest or weed control at 125 g/ha (bermudagrass; Cynodon dactylon, post-emergence, 312 h, postemergence, scale 0 to 100, read-out: Plant response rating, Bermudagrass) was 100% and the pest or weed control at 31 g/ha (bermudagrass; Cynodon dactylon, pre-emergence, 312 h, 31 g ai/ha, preemergence, scale 0 to 100, read-out: Plant response rating, Bermudagrass) was 0%. It also gave a pest or weed control at 125 g/ha (bermudagrass; Cynodon dactylon, pre-emergence, 312 h, scale 0 (no effect) to 100 (complete control), visual, 12 to 14 days, read-out: Plant response rating, Bermudagrass) of 10% and a pest or weed control at 250 g/ha (bermudagrass; Cynodon dactylon, pre-emergence, 312 h, scale 0 to 100 (0 no effect, 100 complete control), visual, 12 to 14 days, read-out: Plant response rating, Bermudagrass) of 10%.
